Measurements reported in patent US20050282818A1, “Ubiquitin ligase inhibitors” (Rigel Pharmaceuticals, Inc., priority 2004, published 2005).
Where two headings read alike, the source gives them in different places.

Key:
A549 cells = test: Cell proliferation PAD assay, A549; format: cell-based; conditions: Homo sapiens, 48 hours
Experimental: (§1) Cell lines used are available from American Type Culture Collection (ATCC), for example, cell cultures containing A549 (ATCC# CCL-185), HeLa (ATCC# CCL-2), HCT116 ATTC# CCL-247), and H1299 (ATCC# CRL-5803) cells were maintained in T175 flasks following the ATCC recommended media and handling procedures. […] A 20,000 cells/ml solution was made for plating. Cells were plated in black Packard 96 well plates by placing 100 μl per well (2,000 cells per well). […] The definitions of the cell types used are as follows: A549 is lung carcinoma; HI 299 is non-small cell lung carcinoma; HI 155 is non-small cell lung carcinoma; AsPC-1 is pancreatic adenocarcinoma; Caov-3 is ovarian adenocarcinoma; COLO 205 is colorectal adenocarcinoma; DLD-1 colorectal adenocarcinoma; HCT116 is colorectal carcinoma; DU 145 is prostate carcinoma; ES-2 is ovarian clear cell carcinoma; H460 is large cell lung carcinoma; HELA is cervical adenocarcinoma; MIA PaCa-2 is pancreatice carcinoma; OVCAR-3 is ovarian adenocarcinoma; OVCAR8 is ovarian carcinoma; PC3 is prostate adenocarcinoma; SK-OV-3 is ovarian adenocarcinoma; SU86.86 is pancreatic carcinoma; TOV-21G is avarian clear cell carcinoma; U2OS is bone osteosarcoma; is ASPC-I is pancreatic adenocarcinoma; BXPC-3 is pabcreatic adenocarcinoma; HL60 is promyeloblast promyelocytic leukemia; K562 is bone marrow chronic myelogenous leukemia; L1210 is mouse lymphocytic leukemia; MOLT3 is T lymphoblast acute lymphoblastic leukemia; MOLT4 is T lymphoblast acute lymphoblastic leukemia; SW620 is colorectal adenocarcinoma; THP-1 is monocyte acute monocytic leukemia; U937 is histiocytic lymphoma; and UACC-257 is melanoma.
(§2) Compounds and additional media were added 24 hours after cell plating. […] All compound testing was done in duplicate using 6.3 fold dilutions starting with 10 mM. […] Taxol and at least one additional control were run on all plates. Three microliters of the compound master plate were added to deep well blocks containing 750 μl of RPMI media. One hundred microliters were transferred from the compound/media deep well blocks to the plated cells resulting in a 500 fold dilution of the compounds. Cells were grown at 37° C., 5% CO2 for 48 hours.
(§3) Cells to be analyzed by photography were fixed and stained. One hundred microliters of media were removed and 100 μl of 9.3% formamide was added to each well. Plates were left on the benchtop for 45 minutes. A staining solution containing 1.55 μl of 1 mg/ml DAPI added to 18.75 ml PBS was warmed for 15 minutes at 37° C. The cells were aspirated prior to washing with 100 μl of PBS. Seventy microliters of PBS were aspirated and 170 μl of the DAPI solution were added to each well of fixed cells. Plates were left at room temperature for one hour then aspirated and washed twice with 100 μl of PBS. The stained cells were left at 4° C. for a minimum of 16 hours before photographic analysis with Array Scan II (Cellomics). Analysis of the photographic images to determine numbers of live cells (proliferation), apoptotic cells and dead cells, were according to the methods described in U.S. Utility patent application Ser. No. 10/652,440, which incorporated herein in its entirety.

H1299 cells = test: Cell proliferation PAD assay, H1299; format: cell-based; conditions: Homo sapiens, 48 hours
Experimental: as §1, §2, §3

[1] = NCI-H1299, 3pt, read-out: H1299 3pt

SMILES | IC50 (A549 cells; 3pt, read-out: A549 3pt) [µM] | IC50 (H1299 cells; [1]) [µM] | IC50 (A549 cells; 6pt, read-out: A549 6pt) [µM] | IC50 (H1299 cells; NCI-H1299, 6pt, read-out: H1299 6pt) [µM]
O=S(=O)(Nc1cc(Cl)cc(Cl)c1)c1cccc2nonc12 [compound 52, N-(3,5-dichlorophenyl)-2,1,3-benzoxadiazole-4-sulfonamide] | ≥ 20 | ≥ 20 |  | 
O=S(=O)(NCCN1CCCC1)c1cccc2nonc12 [compound 55, N-(2-pyrrolidin-1-ylethyl)-2,1,3-benzoxadiazole-4-sulfonamide] | ≥ 20 | ≥ 20 |  | 
O=S(=O)(Nc1ccccn1)c1cccc2nonc12 [compound 58, N-pyridin-2-yl-2,1,3-benzoxadiazole-4-sulfonamide] | ≥ 20 | ≥ 20 |  | 
O=S(=O)(Nc1ccccc1OC(F)(F)F)c1cccc2nonc12 [compound 67, N[2-(trifluoromethoxy)phenyl]2,1,3-benzoxadiazole-4-sulfonamide] | ≥ 20 | ≥ 20 |  | 
O=S(=O)(Nc1ccncc1)c1cccc2nonc12 [compound 68, N-pyridin-4-yl-2,1,3-benzoxadiazole-4-sulfonamide] | ≥ 20 | ≥ 20 |  | 
O=S(=O)(Nc1cccc2nsnc12)c1ccc(F)c(Cl)c1 [compound 76, N-2,1,3-benzothiadiazol-4-yl-3-chloro-4-fluorobenzenesulfonamide] | ≥ 20 | ≥ 20 |  | 
O=S(=O)(Nc1cccc2nsnc12)c1ccc(F)cc1Br [compound 77, N-2,1,3-benzothiadiazol-4-yl-2-bromo-4-fluorobenzenesulfonamide] | ≥ 20 | ≥ 20 |  | 
O=S(=O)(Nc1cccc2nsnc12)c1cc(Cl)c(O)c(Cl)c1 [compound 96, N-2,1,3-benzothiadiazol-4-yl-3,5-dichloro-4-hydroxybenzenesulfonamide] | ≥ 20 | ≥ 20 |  | 
O=S(=O)(Nc1cccc2nsnc12)c1cccc(Br)c1 [compound 97, N-2,1,3-benzothiadiazol-4-yl-3-bromoberizenesulfonamide] | ≥ 20 | ≥ 20 |  | 
N#Cc1ccccc1S(=O)(=O)Nc1cccc2nsnc12 [compound 100, N-2,1,3-benzothiadiazol-4-yl-2-cyanobenzenesulfonamide] | ≥ 20 | ≥ 20 |  | 
N#Cc1ccc(N2CCN(S(=O)(=O)c3cccc4nonc34)CC2)nc1 [compound 120, 6-[4-(2,1,3-benzoxadiazol-4-ylsulfonyl)piperazin-1-yl]nicotinonitrile] | ≥ 20 | ≥ 20 |  | 
O=S(=O)(c1cccc2nonc12)N1CCN(c2ccccn2)CC1 [compound 123, 4-[(4-Pyridin-2-ylpiperazin-1-yl)-sulfonyl]-2,1,3-benzoxadiazole] | ≥ 20 | ≥ 20 |  | 
O=S(=O)(c1cccc2nonc12)N1CCN(c2cc(C(F)(F)F)ccn2)CC1 [compound 124, 4-({4-[4-(trifluoromethyl)pyridin-2-yl]piperazin-1-yl}sulfonyl)-2,1,3-benzoxadiazole] | ≥ 20 | ≥ 20 |  | 
O=S(=O)(c1cccc2nonc12)N1CCN(c2ccncc2)CC1 [compound 126, 4-[(4-pyridin-4-ylpiperazin-1-yl)sulfonyl]-2,1,3-benzoxadiazole] | ≥ 20 | ≥ 20 |  | 
O=S(=O)(c1cccc2nonc12)N1CCN(CCN2CCOCC2)CC1 [compound 127] | ≥ 20 | ≥ 20 |  | 
CC(=O)N1CCN(S(=O)(=O)c2cccc3nonc23)CC1 [compound 128, 4-[(4-acetylpiperazin-1-yl)sulfonyl]-2,1,3-benzoxadiazole] | ≥ 20 | ≥ 20 |  | 
O=C(CN1CCN(S(=O)(=O)c2cccc3nonc23)CC1)N1CCOCC1 [compound 129, 4-{[4-(2-morpholin-4-yl-2-oxoethyl)piperazin-1-yl]sulfonyl}-2,1,3-benzoxadiazole] | ≥ 20 | ≥ 20 |  | 
O=S(=O)(c1cccc2nonc12)N1CCN(c2ncccn2)CC1 [compound 130, 4-[(4-pyrimidin-2-ylpiperazin-1-yl)sulfonyl]-2,1,3-benzoxadiazole] | ≥ 20 | ≥ 20 |  | 
O=S(=O)(c1cccc2nonc12)N1CCN(c2cnccn2)CC1 [compound 131, 4-[(4-pyrazin-2-ylpiperazin-1-yl)sulfonyl]-2,1,3-benzoxadiazole] | ≥ 20 | ≥ 20 |  | 
CSc1ccc(-c2ccc([N+](=O)[O-])c3nonc23)cc1 [compound 318, 7-[4-(Methylthio)phenyl]-4-nitro-2,1,3-benzoxadiazole] |  |  | < 1 | < 1

More lines, now with the values ahead:

IC50 (A549 cells; 3pt, read-out: A549 3pt) [µM] | IC50 (H1299 cells; [1]) [µM] | IC50 (A549 cells; 6pt, read-out: A549 6pt) [µM] | IC50 (H1299 cells; NCI-H1299, 6pt, read-out: H1299 6pt) [µM] | SMILES
≥ 20 | ≥ 20 |  |  | O=S(=O)(NCC1CCCCC1)c1cccc2nonc12 [compound 53, N-(cyclohexylmethyl)-2,1,3-benzoxadiazole-4-sulfonamide]
≥ 20 | ≥ 20 |  |  | Cc1ccc(NS(=O)(=O)c2cccc3nonc23)c(Cl)c1 [compound 54, N-(2-chloro-4-methylphenyl)-2,1,3-benzoxadiazole-4-sulfonamide]
≥ 20 | ≥ 20 |  |  | Cc1ccc(Cl)cc1NS(=O)(=O)c1cccc2nonc12 [compound 56, N-(5-chloro-2-methylphenyl)-2,1,3-benzoxadiazole-4-sulfonamide]
≥ 20 | ≥ 20 |  |  | O=S(=O)(Nc1ccccc1I)c1cccc2nonc12 [compound 57, N-(2-iodophenyl)-2,1,3-benzoxadiazole-4-sulfonamide]
≥ 20 | ≥ 20 |  |  | O=S(=O)(NCCF)c1cccc2nonc12 [compound 59, N-(2-fluoroethyl)-2,1,3-benzoxadiazole-4-sulfonamide]
≥ 20 | ≥ 20 |  |  | O=S(=O)(Nc1cc(Cl)ccc1Cl)c1cccc2nonc12 [compound 60, N-(2,5-dichlorophenyl)-2,1,3-benzoxadiazole-4-sulfonamide]
≥ 20 | ≥ 20 |  |  | COC(=O)c1ccc(C(=O)OC)c(NS(=O)(=O)c2cccc3nonc23)c1 [compound 63, dimethyl 2-[(2,1,3-benzoxadiazol-4-ylsulfonyl)amino]terephthalate]
≥ 20 | ≥ 20 |  |  | O=[N+]([O-])c1ccc(NS(=O)(=O)c2cccc3nonc23)cc1 [compound 65, N-(4-nitrophenyl)-2,1,3-benzoxadiazole-4-sulfonamide]
≥ 20 | ≥ 20 |  |  | O=S(=O)(Nc1ccc(N2CCOCC2)c(Cl)c1)c1cccc2nonc12 [compound 66, N-(3-chloro-4-morpholin-4-ylphenyl)-2,1,3-benzoxadiazole-4-sulfonamide]
1 to 20 | ≥ 20 |  |  | O=S(=O)(Nc1cccc2nsnc12)c1cc(F)c(F)c(F)c1 [compound 71, N-2,1,3-benzothiadiazol-4-yl-3,4,5-trifluorobenzenesulfonamide]
≥ 20 | ≥ 20 |  |  | CCOC(=O)c1cccc(NS(=O)(=O)c2cccc3nonc23)c1 [compound 74, ethyl 3-[(2,1,3-benzoxadiazol-4-ylsulfonyl)amino]benzoate]
≥ 20 | ≥ 20 |  |  | O=S(=O)(Nc1cccc2nsnc12)c1ccc(CBr)cc1 [compound 98, N-2,1,3-benzothiadiazol-4-yl-4-(bromomethyl)benzenesulfonamide]
≥ 20 | ≥ 20 |  |  | N#Cc1cccnc1N1CCN(S(=O)(=O)c2cccc3nonc23)CC1 [compound 119, 2-[4-(2,1,3-benzoxadiazol-4-ylsulfonyl)piperazin-1-yl]nicotinonitrile]
≥ 20 | ≥ 20 |  |  | O=S(=O)(c1cccc2nonc12)N1CCN(c2cccc(C(F)(F)F)c2)CC1 [compound 125, 4({4-[3-(trifluoromethyl)phenyl]piperazin-1-yl}sulfonyl)-2,1,3-benzoxadiazole]
≥ 20 | ≥ 20 |  |  | O=S(=O)(c1cccc2nonc12)N1CCN(c2ccc(Cl)c(C(F)(F)F)c2)CC1 [compound 132, 4-({4-[4-chloro-3-(trifluoromethyl)phenyl]piperazin-1-yl}sulfonyl)-2,1,3-benzoxadiazole]
